Data published in article PMC9014415, “Repositioning of a Diaminothiazole Series Confirmed to Target the Cyclin-Dependent Kinase CRK12 for Use in the Treatment of African Animal Trypanosomiasis” (Journal of Medicinal Chemistry, 2022).
Several values for one entry are separate records, joined by “and”; a condition that tells them apart may be missing. Identical values can stand only once. Like-named read-outs stand apart in the source and are kept apart here.

Columns and labels:
[1] = Mouse liver microsome stability; format: in vitro ADME; details: intrinsic clearance
Description: solubility method,5 the long shaking times appear to give solubility values that more closely reflect those made from solid samples (unpublished in-house data).
2.2 Microsomal stability studies
(a) Mouse liver microsome stability. These methods have been previously reported.6
(b) Bovine liver microsome stability. Test compounds (0.5 µM) were incubated with 0.5 mg/mL bovine liver microsomes (Xenotech LLC TM) in 50 mM potassium phosphate buffer, pH7.4 and the reaction initiated upon addition of excess NADPH (8 mg/mL in 50 mM potassium phosphate buffer, pH7.4).
Aliquots (50 µL) of the incubation mixture were taken at time zero, 3, 6, 9, 15 and 30 min then mixed with acetonitrile (100 µL) to stop the reaction. An internal standard was added to all samples, prior to centrifugation (10 min, 1,665 g, RT) to sediment precipitated protein. Reaction plates were then sealed prior to UPLCMSMS analysis using a Quattro Premier XE (Waters corporation, USA).
XLfit (IDBS, UK) was used to calculate the exponential decay and consequently the rate constant (k) from the ratio of peak area of test compound to internal standard at each timepoint. The rate of intrinsic clearance (CLi) of each test compound was then calculated using the following […]
CLi(mL/min/g liver) = k x V x microsomal protein yield […]

[2] = Mouse hepatocyte stability; format: in vitro ADME; details: intrinsic clearance
[3] = Pharmacokinetic studies in male Friesian-Holstein cattle, IV and IM (Ridgeway); format: in vivo; details: cattle
Description: 2.7 Pharmacokinetic studies in cattle (see Table 2). Studies conducted at Ridgeway Compound 1 was dosed IM at 5 mg free base/kg (dose volume 2mL/10 kg; dose vehicle 10% N-Methyl-2-Pyrrolidinone (NMP), 40% 2-pyrrolidinone, 30% PEG400, 20% deionized water) or IV at 2.5 mg free base/kg (dose volume 0.4 mL/10 kg; 2.5% NMP, 30% PEG400, 37.5% propylene glycol, 30% water by volume) to male ruminating Holstein-Friesian cross animals (n = 4). Blood samples were taken from each animal using 18-G needles into EDTA (K2) vacutainers before dosing and at […]
a cool box containing iced water and were processed within 2 h of collection (Figure S2, Table S1).
Compound 2 was dosed IM at 10 mg free base/kg (dose volume 2 mL/10 kg; dose vehicle 40% 0.3 M Acetate Buffer, 20% Kolliphor EL, 20% glycerol formal, 20% 2-pyrrolidone) or IV at 2 mg free base/kg (dose volume 0.4 mL/10 kg; 40% 0.3 M Acetate Buffer, 20% Kolliphor EL, 20% glycerol formal, 20% 2-pyrrolidone) to male ruminating Holstein-Friesian cross animals (n = 3). Blood samples were taken from each animal using 18-G needles into EDTA (K2) vacutainers before dosing […]
into a cool box containing iced water and were processed within 2 h of collection. […]

[4] = in vivo
[5] = Bovine liver microsome stability; format: in vitro ADME; details: intrinsic clearance
Procedure, shortened: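 Bovine: 0.5 µM compound with 0.5 mg/mL liver microsomes in 50 mM potassium phosphate pH 7.4, started with excess NADPH, sampled to 30 min and analysed by UPLC-MS/MS. CLi (mL/min/g liver) from first-order decay constant, assuming 52.5 mg microsomal protein/g liver. Mouse method not described here.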

[6] = PK in female NMRI mice, SC; format: in vivo, mouse; details: mouse, whole blood, 10 mg/kg SC
Description: 2.5 PK and maximum tolerated dose - mouse
PK studies in female NMRI mice (Figure S1): Test compounds 1, 2 and 10 were dosed SC at 10 mg free base/kg (dose volume 10 mL/kg; dose vehicle: 5% (v/v) DMSO, 40% polyethylene glycol 400 (PEG400) and 55% deionized water) to female NMRI mice (n = 3). Blood samples (10 μL) were taken from each mouse at 0.08, 0.25, 0.5, 1, 2, 4, 6, 8 h post dose (24 h post dose for compounds 2 and 10 only) and mixed with two volumes of deionized water (20 μL). Alternatively, compound 2 was delivered for 48 h via SC implanted ALZET osmotic pumps (10, 25 and 50 mg free base/mL, vehicle: 50% DMSO and 50% deionized water) to the female NMRI mouse (n = 3). Blood samples (10 μL) from each mouse were taken at 1, 3, 6, 24, 30 and 48 h post-dose and mixed with two volumes of deionized water (20 μL). […]

[7] = IM 5 mg/kg, individual animals 2754, 7462, 1753, 6752
[8] = IV 2.5 mg/kg, individual animals 2754, 7462, 1753, 6752, 2.5 mg/kg
[9] = male, Holstein-Friesian cross, bovine, blood, im, 5 mg/kg, IM 5 mg/kg, individual animals 2754, 7462, 1753, 6752

CC(C)CS(=O)(=O)N[C@H]1CC[C@H](Nc2nc(N)c(C(=O)c3c(F)cccc3F)s2)CC1 [Compound 1, N-((trans)-4-((4-Amino-5-(2,6-difluorobenzoyl)thiazol-2-yl)amino)cyclohexyl)-2-methylpropane-1-sulfonamide]
Mouse Microsome Cli [1]: 11 mL/min/g
Mouse Hepatocyte Cli [2]: 5.9 mL/min/g
AUC 0-∞ [3, 7]: 26,000 ng-min/mL and 15,000 ng-min/mL and 22,000 ng-min/mL
Cmax [3, 7]: 70 ng/mL and 128 ng/mL and 118 ng/mL and 216 ng/mL
F [3, 7]: 11% and 7% (2×)
Tmax [3, 7]: 0.25 h
Cmax ([3]; IM 5 mg/kg, n = 4, mean): 130 ± 60 ng/mL
F ([3]; IM 5 mg/kg, n = 4, mean): 8.8 ± 2.1%
AUC 0-∞ [3, 8]: 120,000 ng-min/mL (2×) and 160,000 ng-min/mL
Clb [3, 8]: 24 mL/min/kg and 20 mL/min/kg and 21 mL/min/kg and 15 mL/min/kg
Vdss [3, 8]: 3.5 L/kg and 1.8 L/kg and 2.5 L/kg and 1.7 L/kg
half-life [3, 8]: 1.7 h and 2.4 h
Clb ([3]; IV 2.5 mg/kg, n = 4, mean ± SD): 20 ± 4 mL/min/kg
AUC(0-inf) [3, 9]: 350 ng·h/mL
bioavailability [3, 9]: 10%
Tmax ([3]; male, Holstein-Friesian cross, bovine, blood, im, 5 mg/kg, IM 5 mg/kg, individual animals 2754, 7462, 1753, 6752, read-out: Tmax): 0.5 h
bioavailability ([3]; male, Holstein-Friesian cross, bovine, blood, im, 5 mg/kg, IM 5 mg/kg, n = 4, mean): 9%
Cmax ([3]; male, Holstein-Friesian cross, bovine, blood, im, 5 mg/kg, IM 5 mg/kg, n = 4, mean, read-out: Cmax): 133 ng/mL
AUC(0-inf) ([3]; male, Holstein-Friesian cross, bovine, blood, iv, 2.5 mg/kg, IV 2.5 mg/kg, individual animals 2754, 7462, 1753, 6752): 1670 ng·h/mL
half-life ([3]; male, Holstein-Friesian cross, bovine, blood, iv, 2.5 mg/kg, IV 2.5 mg/kg, individual animals 2754, 7462, 1753, 6752, read-out: Half-life (converted)): 1.2 h
AUC(0-inf) ([3]; male, Holstein-Friesian cross, bovine, blood, iv, 2.5 mg/kg, IV 2.5 mg/kg, n = 4, mean ± SD): 2170 ng·h/mL
half-life ([3]; male, Holstein-Friesian cross, bovine, blood, iv, 2.5 mg/kg, IV 2.5 mg/kg, n = 4, mean ± SD, read-out: half-life (converted)): ~1.8 h
AUC(0-t) ([3]; male, Holstein-Friesian cross, bovine, blood, IM 5 mg/kg, mean, read-out: AUC0-8 (converted)): 349 ng·h/mL
AUC(0-inf) ([3]; male, Holstein-Friesian cross, bovine, whole blood, im, 5 mg/kg, IM 5 mg/kg, n = 4, mean ± SD): 350 ng·h/mL
Tmax ([3]; male, Holstein-Friesian cross, bovine, whole blood, im, 5 mg/kg, IM 5 mg/kg, n = 4, mean ± SD, read-out: Tmax): 0.44 ± 0.13 h
Vd ([3]; male, Holstein-Friesian cross, bovine, whole blood, iv, 2.5 mg/kg, IV 2.5 mg/kg, n = 4, mean ± SD, read-out: Vdss): 2.4 ± 0.8 L/kg
Mouse oral MTD ([4]; po, 3 days): >300 mg/kg
Tolerability, maximum tolerated dose study ([4]; mouse, sc): No tolerability issues
Bovine Microsome Cli (BLM: bovine microsomal clearance) [5]: <0.5 / 0.5 mL/min/g and <0.5 mL/min/g
bioavailability at 8 h [6]: 74%
half-life at 8 h ([6]; read-out: T½): 1 h
half-life ([6]; read-out: T½ (converted)): ~1 h
